According to patent US20030118577A1, “Use of analogues of superoxide dismutase for treating hepatocellular insufficiencies” (priority 2000, published 2003):

Columns and labels:
[1] = known; cited from earlier work
[2] = tested on: acute hepatic insufficiency induced by anti-Fas antibodies; test: Survival of mice after injection of anti-Fas antibody (fulminant hepatitis); assay type: in vivo; conditions: at 24 hours; 6 μg anti-Fas antibody iv; MnTBAP 10 mg/kg 2 hours beforehand; FIG. 3
Protocol: The injection of these antibodies into mice causes fulminant hepatitis due to a massive apoptosis of the hepatocytes, causing the death of the mice within a few hours following the injection [OGASAWARA et al., Nature, 364, pp. 806-809, (1993); NAGATA, Prog. Mol. Subcell. Biol., 16, pp. 87-103, (1996)].
27 control mice received, by intravenous injection, 6 μg of an anti-Fas monoclonal antibody (clone J02; PHARMINGEN) diluted in 100 μl of physiological saline; a second group of 15 mice received the same treatment, preceded by the administration, 2 hours beforehand, of 10 mg/kg of MnTBAP, as described in Example 1 above; a control group received MnTBAP alone (10 mg/kg).

[3] = tested on: hepatocellular insufficiency induced by chronic intoxication with DMNA; test: Chronic intoxication with DMNA, histological examination; assay type: in vivo, mice
Protocol: The inventors also investigated the effects of MnSOD mimetics on hepatocellular insufficiency of toxic origin which can be induced in particular by alcohol, using an experimental model of intoxication with dimethylnitrosamine (DMNA) administered at the dose of 10 mg/kg in mice. This model is similar to intoxication with alcohol because the lesions induced by DMNA and alcohol are identical.
Intraperitoneal administration of 10 mg/kg/day of DMNA three times per week induces, in dogs and rodents, centrolobular and periportal lesions comprising fibrosis at the 4th week, and cirrhosis at the 13th week [RISTELLI et al., J. Biochem., 158, 361-367, (1976); MADDEN et al., Surgery, 68, 260-267, (1970)].

[4] = tested on: acute hepatic insufficiency induced by acetaminophen; test: Survival of mice after intraperitoneal acetaminophen (acute hepatic insufficiency); conditions: for rate of survival: 24 hours after acetaminophen 1000 mg/kg ip, FIG. 1
Protocol: The intraperitoneal injection of acetaminophen into mice induces a severe hepatotoxicity, the degree of which may be evaluated by the survival of the animals, measuring transaminase activities, and macroscopic and microscopic examination of the livers.
The acetaminophen in solution at 100 mg/ml in PBS at pH 7.4 is administered by the intraperitoneal route.
In a first series of experiments, a group of mice received a dose of 1000 mg/kg of acetaminophen; a second group received a dose of 1000 mg/kg of acetaminophen and a dose of 10 mg/kg of MnTBAP administered either 2 h before the acetaminophen or 6 h after; a control group received either MnTBAP alone (10 mg/kg), or PBS alone.
The survival of the animals is monitored for 24 hours after the administration of acetaminophen.
The effect of N-acetyl-L-cysteine (NAC), of CuDIPS, and of MnTBAP on the survival of mice after intraperitoneal injection of 1000 mg/kg of acetaminophen (APAP) was compared.
MnTBAP, NAC, or CuDIPS are administered in the form of a bolus, preventively, 2 hours before (P) or, curatively, 6 hours after (C) the acetaminophen.
The survival of the animals is monitored for 24 hours after administration of acetaminophen.

O=C(O)c1ccc(-c2c3nc(c(-c4ccc(C(=O)O)cc4)c4ccc([n-]4)c(-c4ccc(C(=O)O)cc4)c4nc(c(-c5ccc(C(=O)O)cc5)c5ccc2[n-]5)C=C4)C=C3)cc1.[Mn+3] [MnTBAP, Mn(III) tetrakis(5,10,15,20-benzoic acid)porphyrin]
catalase activity [1]: known to possess a catalase activity | rate of survival [2]: ~60% | appearance of hepatic lesions on histological sections ([3]; DMNA 10 mg/kg in mice, different intoxication times): delays the appearance of hepatic lesions | constitution of fibrosis on histological examination ([3]; DMNA 10 mg/kg/day ip three times per week, MnTBAP 10 mg/kg ip 24 hours after each DMNA): prevents the constitution of objectively viable fibrosis | rate of survival ([4]; MnTBAP 10 mg/kg ip 2 h before acetaminophen): ~60% | rate of survival ([4]; MnTBAP 10 mg/kg ip 6 h after acetaminophen): greater than 40% | effect on survival rate, administered preventively ([4]; APAP 1000 mg/kg, 2 hours before (P)): increases the survival rate in a manner at least equal to NAC | activity on survival, curative versus preventive administration ([4]; APAP 1000 mg/kg, 6 hours after (C) or 2 hours before (P)): active when it is administered curatively | activity on survival by the oral route ([4]; APAP 1000 mg/kg, per os): active | percentage of surviving animals ([4]; Group II: MnTBAP 10 mg/kg alone, no APAP, time 0 h): 100% | percentage of surviving animals ([4]; Group II: MnTBAP 10 mg/kg alone, no APAP, time 6 h): 100% | percentage of surviving animals ([4]; Group II: MnTBAP 10 mg/kg alone, no APAP, time 8 h): 100% | percentage of surviving animals ([4]; Group II: MnTBAP 10 mg/kg alone, no APAP, time 9 h): 100% | percentage of surviving animals ([4]; Group II: MnTBAP 10 mg/kg alone, no APAP, time 10 h): 100% | percentage of surviving animals ([4]; Group II: MnTBAP 10 mg/kg alone, no APAP, time 11 h): 100% | percentage of surviving animals ([4]; Group II: MnTBAP 10 mg/kg alone, no APAP, time 12 h): 100% | percentage of surviving animals ([4]; Group II: MnTBAP 10 mg/kg alone, no APAP, time 13 h): 100% | percentage of surviving animals ([4]; Group II: MnTBAP 10 mg/kg alone, no APAP, time 14 h): 100% | percentage of surviving animals ([4]; Group II: MnTBAP 10 mg/kg alone, no APAP, time 15 h): 100% | percentage of surviving animals ([4]; Group II: MnTBAP 10 mg/kg alone, no APAP, time 16 h): 100% | percentage of surviving animals ([4]; Group II: MnTBAP 10 mg/kg alone, no APAP, time 17 h): 100% | percentage of surviving animals ([4]; Group II: MnTBAP 10 mg/kg alone, no APAP, time 18 h): 100% | percentage of surviving animals ([4]; Group II: MnTBAP 10 mg/kg alone, no APAP, time 20 h): 100% | percentage of surviving animals ([4]; Group II: MnTBAP 10 mg/kg alone, no APAP, time 22 h): 100% | percentage of surviving animals ([4]; Group II: MnTBAP 10 mg/kg alone, no APAP, time 24 h): 100% | percentage of surviving animals ([4]; Group IX: APAP 1000 mg/kg, MnTBAP 50 mg/kg (P) per os, time 0 h): 100% | percentage of surviving animals ([4]; Group IX: APAP 1000 mg/kg, MnTBAP 50 mg/kg (P) per os, time 6 h): 100% | percentage of surviving animals ([4]; Group IX: APAP 1000 mg/kg, MnTBAP 50 mg/kg (P) per os, time 8 h): 88.8% | percentage of surviving animals ([4]; Group IX: APAP 1000 mg/kg, MnTBAP 50 mg/kg (P) per os, time 9 h): 88.8% | percentage of surviving animals ([4]; Group IX: APAP 1000 mg/kg, MnTBAP 50 mg/kg (P) per os, time 10 h): 88.8% | percentage of surviving animals ([4]; Group IX: APAP 1000 mg/kg, MnTBAP 50 mg/kg (P) per os, time 11 h): 88.8% | percentage of surviving animals ([4]; Group IX: APAP 1000 mg/kg, MnTBAP 50 mg/kg (P) per os, time 12 h): 88.8% | percentage of surviving animals ([4]; Group IX: APAP 1000 mg/kg, MnTBAP 50 mg/kg (P) per os, time 13 h): 88.8% | percentage of surviving animals ([4]; Group IX: APAP 1000 mg/kg, MnTBAP 50 mg/kg (P) per os, time 14 h): 88.8% | percentage of surviving animals ([4]; Group IX: APAP 1000 mg/kg, MnTBAP 50 mg/kg (P) per os, time 15 h): 88.8% | percentage of surviving animals ([4]; Group IX: APAP 1000 mg/kg, MnTBAP 50 mg/kg (P) per os, time 16 h): 88.8% | percentage of surviving animals ([4]; Group IX: APAP 1000 mg/kg, MnTBAP 50 mg/kg (P) per os, time 17 h): 77.7% | percentage of surviving animals ([4]; Group IX: APAP 1000 mg/kg, MnTBAP 50 mg/kg (P) per os, time 18 h): 66.6% | percentage of surviving animals ([4]; Group IX: APAP 1000 mg/kg, MnTBAP 50 mg/kg (P) per os, time 20 h): 66.6% | percentage of surviving animals ([4]; Group IX: APAP 1000 mg/kg, MnTBAP 50 mg/kg (P) per os, time 22 h): 66.6% | percentage of surviving animals ([4]; Group IX: APAP 1000 mg/kg, MnTBAP 50 mg/kg (P) per os, time 24 h): 66.6% | percentage of surviving animals ([4]; Group V: APAP 1000 mg/kg, MnTBAP 10 mg/kg (P), time 0 h): 100% | percentage of surviving animals ([4]; Group V: APAP 1000 mg/kg, MnTBAP 10 mg/kg (P), time 6 h): 100% | percentage of surviving animals ([4]; Group V: APAP 1000 mg/kg, MnTBAP 10 mg/kg (P), time 8 h): 100% | percentage of surviving animals ([4]; Group V: APAP 1000 mg/kg, MnTBAP 10 mg/kg (P), time 9 h): 91.4% | percentage of surviving animals ([4]; Group V: APAP 1000 mg/kg, MnTBAP 10 mg/kg (P), time 10 h): 88.6% | percentage of surviving animals ([4]; Group V: APAP 1000 mg/kg, MnTBAP 10 mg/kg (P), time 11 h): 77.1% | percentage of surviving animals ([4]; Group V: APAP 1000 mg/kg, MnTBAP 10 mg/kg (P), time 12 h): 74.3% | percentage of surviving animals ([4]; Group V: APAP 1000 mg/kg, MnTBAP 10 mg/kg (P), time 13 h): 74.3% | percentage of surviving animals ([4]; Group V: APAP 1000 mg/kg, MnTBAP 10 mg/kg (P), time 14 h): 71.4% | percentage of surviving animals ([4]; Group V: APAP 1000 mg/kg, MnTBAP 10 mg/kg (P), time 15 h): 71.4% | percentage of surviving animals ([4]; Group V: APAP 1000 mg/kg, MnTBAP 10 mg/kg (P), time 16 h): 68.6% | percentage of surviving animals ([4]; Group V: APAP 1000 mg/kg, MnTBAP 10 mg/kg (P), time 17 h): 68.6% | percentage of surviving animals ([4]; Group V: APAP 1000 mg/kg, MnTBAP 10 mg/kg (P), time 18 h): 65.7%
